What was measured:
Assay in all cases: relative viability (nuclei count vs DMSO), 5 days (fraction); higher = more cells survive
Omipalisib + Navitoclax = compound: COc1ncc(-c2ccc3nccc(-c4ccnnc4)c3c2)cc1NS(=O)(=O)c1ccc(F)cc1F [Omipalisib] + CC1(C)CCC(c2ccc(Cl)cc2)=C(CN2CCN(c3ccc(C(=O)NS(=O)(=O)c4ccc(N[C@H](CCN5CCOCC5)CSc5ccccc5)c(S(=O)(=O)C(F)(F)F)c4)cc3)CC2)C1 [Navitoclax] (partner 0.5 µM)
Summary of the method: (§1)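 Cells from lung cancer lines were seeded into 1536-well plates and, one day later, dosed by pin tool. Treatments were either a single drug or a fixed dose of an anchor drug with five library-drug doses (not always all listed) in √10 steps. After 5 days, nuclei were stained in a one-step fixation (final 0.05% Triton X-100, 1% formaldehyde, 1 ug/ml Hoechst) and counted on 4× images, and relative viability is the treated-to-vehicle nuclei ratio, as the median of duplicate plates.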

Omipalisib + Luminespib = compound: COc1ncc(-c2ccc3nccc(-c4ccnnc4)c3c2)cc1NS(=O)(=O)c1ccc(F)cc1F [Omipalisib] + CCNC(=O)c1noc(-c2cc(C(C)C)c(O)cc2O)c1-c1ccc(CN2CCOCC2)cc1 [Luminespib] (partner 0.01 µM)
Summary of the method: as §1

Omipalisib + Crizotinib = compound: COc1ncc(-c2ccc3nccc(-c4ccnnc4)c3c2)cc1NS(=O)(=O)c1ccc(F)cc1F [Omipalisib] + C[C@@H](Oc1cc(-c2cnn(C3CCNCC3)c2)cnc1N)c1c(Cl)ccc(F)c1Cl [Crizotinib] (partner 1 µM)
Summary of the method: as §1

Row | Cell Line | relative viability (Omipalisib + Navitoclax; first compound 0.0003 µM) | relative viability (Omipalisib + Navitoclax; first compound 0.003 µM) | relative viability (Omipalisib + Navitoclax; first compound 0.03 µM) | relative viability (Omipalisib + Luminespib; first compound 0.0003 µM) | relative viability (Omipalisib + Luminespib; first compound 0.003 µM) | relative viability (Omipalisib + Luminespib; first compound 0.03 µM) | relative viability (Omipalisib + Crizotinib; first compound 0.0003 µM) | relative viability (Omipalisib + Crizotinib; first compound 0.003 µM) | relative viability (Omipalisib + Crizotinib; first compound 0.03 µM)
1 | NCI-H1650 | 1.18 | 1.05 | 0.409 | 0.179 | 0.182 | 0.169 | 0.794 | 1.16 | 0.717
2 | ChaGo-K-1 | 0.762 | 0.686 | 0.945 | 0.615 | 0.593 | 0.503 | 1.04 | 1.09 | 1.07
3 | NCI-H23 | 0.748 | 0.421 | 0.35 | 0.225 | 0.219 | 0.218 | 0.425 | 0.263 | 0.283
4 | 201T | 1.21 | 1.2 | 0.838 | 0.95 | 1.05 | 0.463 | 0.988 | 1.05 | 0.731
5 | RERF-LC-KJ | 0.79 | 0.7 | 0.627 | 1.15 | 1.13 | 0.688 | 0.736 | 0.814 | 0.679
6 | NCI-H1666 | 0.808 | 0.597 | 0.398 | 0.983 | 0.955 | 0.729 | 0.974 | 0.743 | 0.494
7 | ABC-1 |  |  |  | 0.688 | 0.362 | 0.484 | 0.811 | 0.899 | 0.49
8 | EKVX | 0.979 | 0.773 | 0.48 | 0.859 | 0.717 | 0.423 | 0.934 | 0.824 | 0.402
9 | BEN | 0.0683 | 0.0526 | 0.0581 | 0.274 | 0.276 | 0.288 | 0.635 | 0.531 | 0.464
10 | NCI-H322M | 1.21 | 0.823 | 0.515 | 0.518 | 0.517 | 0.298 | 0.859 | 0.843 | 0.532
11 | SW 1573 | 0.921 | 0.745 | 0.475 | 0.208 | 0.198 | 0.157 | 0.812 | 0.628 | 0.379
12 | HCC-366 | 1.03 | 0.341 | 0.12 |  |  |  | 0.365 | 0.0929 | 0.041
13 | A-427 | 0.957 | 0.732 | 0.872 | 0.857 | 0.678 | 0.863 | 0.818 | 0.736 | 0.639
14 | NCI-H838 | 1.1 | 0.997 | 0.501 | 0.332 | 0.269 | 0.203 | 0.767 | 0.57 | 0.354
15 | NCI-H1355 | 0.931 | 0.538 | 0.343 | 0.637 | 0.579 | 0.273 | 0.999 | 0.653 | 0.327
16 | NCI-H2126 | 0.82 | 0.594 | 0.375 | 0.825 | 0.567 | 0.338 | 0.965 | 0.866 | 0.559
17 | HCC-827 | 0.979 | 0.97 | 0.651 | 0.588 | 0.302 | 0.194 | 0.952 | 0.885 | 0.373
18 | NCI-H661 |  |  |  | 0.938 | 1.01 | 0.833 | 0.969 | 0.94 | 0.703

Row | Cell Line | relative viability (Omipalisib + Navitoclax; first compound 0.0003 µM) | relative viability (Omipalisib + Navitoclax; first compound 0.003 µM) | relative viability (Omipalisib + Navitoclax; first compound 0.03 µM) | relative viability (Omipalisib + Luminespib; first compound 0.0003 µM) | relative viability (Omipalisib + Luminespib; first compound 0.003 µM) | relative viability (Omipalisib + Luminespib; first compound 0.03 µM) | relative viability (Omipalisib + Crizotinib; first compound 0.0003 µM) | relative viability (Omipalisib + Crizotinib; first compound 0.003 µM) | relative viability (Omipalisib + Crizotinib; first compound 0.03 µM)
19 | NCI-H1755 | 1.01 | 0.848 | 0.368 | 0.445 | 0.292 | 0.375 | 0.848 | 0.805 | 0.481
20 | HCC-15 | 0.667 | 0.54 | 0.462 | 0.331 | 0.383 | 0.206 | 0.793 | 0.734 | 0.655
21 | NCI-H2009 | 1.22 | 1.14 | 0.897 | 1.04 | 1.02 | 0.874 | 0.989 | 0.923 | 0.742
22 | SK-MES-1 | 1.21 | 0.836 | 0.464 | 0.635 | 0.421 | 0.269 | 0.954 | 0.656 | 0.611
23 | NCI-H2023 | 0.959 | 0.633 | 0.313 | 0.619 | 0.44 | 0.155 | 0.569 | 0.407 | 0.18
24 | NCI-H2405 | 0.812 | 0.618 | 0.323 | 0.661 | 0.392 | 0.298 | 0.852 | 0.769 | 0.408
25 | HCC-78 | 0.68 | 0.466 | 0.193 |  |  |  | 0.299 | 0.232 | 0.192
26 | NCI-H441 | 0.547 | 0.527 | 0.552 | 0.207 | 0.28 | 0.234 | 0.462 | 0.32 | 0.367
27 | LCLC-97TM1 | 0.503 | 0.149 | 0.164 | 0.692 | 0.511 | 0.202 | 0.243 | 0.159 | 0.11
28 | LCLC-103H |  |  |  | 0.999 | 0.714 | 0.427 | 1.07 | 0.922 | 0.63
29 | NCI-H1944 | 0.975 | 0.775 | 0.474 | 0.686 | 0.417 | 0.296 | 1 | 0.858 | 0.439
30 | NCI-H2087 | 0.918 | 0.749 | 0.535 | 0.166 | 0.14 | 0.158 | 0.795 | 0.935 | 0.734
31 | NCI-H1734 | 0.763 | 0.444 | 0.275 | 0.208 | 0.203 | 0.171 | 0.574 | 0.38 | 0.213
32 | EMC-BAC-2 | 1.12 | 0.92 | 0.566 | 1.07 | 0.711 | 0.58 | 0.744 | 0.665 | 0.395
33 | LU99A | 0.5 | 0.512 | 0.293 | 0.201 | 0.206 | 0.24 | 0.55 | 0.449 | 0.225
34 | NCI-H1793 | 0.368 | 0.29 | 0.204 | 0.19 | 0.159 | 0.159 |  |  | 
35 | NCI-H3122 | 1.02 | 0.991 | 0.402 | 0.074 | 0.0541 | 0.089 | 0.258 | 0.231 | 0.159

Reference: the supplement of paper PMC10307832
